Measurements from patent US20230405028A1 (priority 2020, published 2023).
Read-outs that look alike come from different tables or passages of the source.

Key:
A-172 glioblastoma cells = test: MTT cell viability assay in A-172 cells; conditions: Psilocybin + Eugenol section, 25 μM EUG
COX-2 = COX-2 in HSIEC cells treated with TNF-α/IFN-γ (western blot, densitometry); assay type: cell-based, human; conditions: single agent, escalating doses
Description: Cell Culture: Human primary small intestinal epithelial cells (HSIEC), purchased from Cell Biologics were cultured in Epithelial Cell Medium/w Kit. HSIEC cells were incubated at 37° C. in a humidified atmosphere of 5% CO2. HSIEC cells were treated with mycoplasma removal reagent BM-Cyclin (Roche) to ensure mycoplasma negative before treatment.
To do so, COX-2, an enzyme which mediates the bioconversion of arachidonic acid to inflammatory prostaglandins (PGs), was measured via densitometry. GAPDH was used as a reference housekeeping marker for relative densitometry measures. […] Ethanol or DMSO was used, as indicated in the figures, as a vehicle for dilution and as a negative control showing the amount of the inflammatory marker present when inflammation was not induced.
Increasing doses of each molecule of interest, or each combination of molecules of interest, were then distributed to the HSIEC cells treated to induce inflammatory response. Inflammatory markers COX-2 and/or IL-6 were assessed at specific timepoints after induction of inflammation for protein content marker measured via western blot. GAPDH was used as a reference housekeeping marker for relative densitometry measures of protein content.

iNOS = iNOS in HSIEC cells treated with TNF-α/IFN-γ; assay type: cell-based, human; conditions: 5, 10, 20, 40 μM
[1] = test system: Human primary small intestinal epithelial cells (HSIEC)
5HT2A = 5HT2A (Homo sapiens, UniProt P28223); conditions: printed with a question mark in the Average Dose column; cited from earlier work
TRPA1 = TRPA1 overexpressing CHO cells and trigeminal neurons; cited from earlier work
anandamide levels = conditions: chronic, but not acute, administration of 150 mg/kg (Smalheiser, 2019); cited from earlier work

5HT2A, sequence (P28223 whole entry): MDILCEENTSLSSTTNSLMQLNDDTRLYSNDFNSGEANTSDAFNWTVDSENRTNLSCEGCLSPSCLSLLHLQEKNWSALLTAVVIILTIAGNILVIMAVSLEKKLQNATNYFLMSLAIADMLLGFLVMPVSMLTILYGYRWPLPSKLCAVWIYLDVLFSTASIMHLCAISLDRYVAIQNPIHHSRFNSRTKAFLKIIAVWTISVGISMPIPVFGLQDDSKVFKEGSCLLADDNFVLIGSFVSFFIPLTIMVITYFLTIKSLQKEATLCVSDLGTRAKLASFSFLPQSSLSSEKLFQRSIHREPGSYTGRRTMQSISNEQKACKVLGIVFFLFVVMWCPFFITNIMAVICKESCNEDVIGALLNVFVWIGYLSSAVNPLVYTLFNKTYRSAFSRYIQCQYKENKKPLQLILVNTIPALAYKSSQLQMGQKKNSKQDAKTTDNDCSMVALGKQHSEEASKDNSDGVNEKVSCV

C=CCc1ccc(O)c(OC)c1 [EUG]
Cellular Metabolic Activity (A-172 glioblastoma cells; 24 h): 0.202 | Cellular Metabolic Activity (A-172 glioblastoma cells; 48 h): 0.297 | Cellular Metabolic Activity (A-172 glioblastoma cells; 72 h): 0.473 | Cellular Metabolic Activity (A-172 glioblastoma cells; 96 h): 0.319 | Cellular Metabolic Activity (A-172 glioblastoma cells; time 0): 0.134

CC(=O)Oc1cccc2[nH]cc(CCN(C)C)c12 [4-ACO-DMT, 3-[2-(dimethylamino)ethyl]-4-acetoxyindole]
doses reducing COX-2 to the greatest extent (COX-2): 40 µM | dose reducing iNOS to the greatest extent (iNOS): 10 µM | doses resulting in reduction of iNOS (iNOS): all doses | effect on cell growth / cellular metabolic activity (MTT, words) [1]: increase growth of cells

CCC(CC)NC(=O)[C@@H]1C=C2c3cccc4[nH]cc(c34)C[C@H]2N(C)C1 [LSP, D-lysergic acid 3-pentyl amide]
potency of LSD (5HT2A): 75% potency % potency of LSD

CCCCCc1cc(O)c2c(c1)OC(C)(C)[C@@H]1CCC(C)=C[C@@H]21 [THC, delta-9-tetrahydrocannabinol]
TRPA1 activation (TRPA1): activate TRPA1

COc1cc(/C=C/C(=O)CC(=O)/C=C/c2ccc(O)c(OC)c2)ccc1O [curcumin, (1E,6E)-1,7-bis(4-hydroxy-3-methoxyphenyl) hepta-1,6-diene-3,5-dione]
Cellular Metabolic Activity ([1]; 1 μM, 24 h): 0.086 | Cellular Metabolic Activity ([1]; 1 μM, 48 h): 0.184 | Cellular Metabolic Activity ([1]; 1 μM, 72 h): 0.375 | Cellular Metabolic Activity ([1]; 1 μM, 96 h): 0.611 | Cellular Metabolic Activity ([1]; 1 μM, time 0): 0.040 | Cellular Metabolic Activity ([1]; 5 μM, 24 h): 0.079 | Cellular Metabolic Activity ([1]; 5 μM, 48 h): 0.148 | Cellular Metabolic Activity ([1]; 5 μM, 72 h): 0.299 | Cellular Metabolic Activity ([1]; 5 μM, 96 h): 0.595 | Cellular Metabolic Activity ([1]; 5 μM, time 0): 0.036 | Cellular Metabolic Activity ([1]; 10 μM, 24 h): 0.070 | Cellular Metabolic Activity ([1]; 10 μM, 48 h): 0.115 | Cellular Metabolic Activity ([1]; 10 μM, 72 h): 0.215 | Cellular Metabolic Activity ([1]; 10 μM, 96 h): 0.466 | Cellular Metabolic Activity ([1]; 10 μM, time 0): 0.036 | Cellular Metabolic Activity ([1]; 20 μM, 24 h): 0.059 | Cellular Metabolic Activity ([1]; 20 μM, 48 h): 0.057 | Cellular Metabolic Activity ([1]; 20 μM, 72 h): 0.060 | Cellular Metabolic Activity ([1]; 20 μM, 96 h): 0.038 | Cellular Metabolic Activity ([1]; 20 μM, time 0): 0.040 | Cellular Metabolic Activity ([1]; 40 μM, 24 h): 0.038 | Cellular Metabolic Activity ([1]; 40 μM, 48 h): 0.026 | Cellular Metabolic Activity ([1]; 40 μM, 72 h): 0.014 | Cellular Metabolic Activity ([1]; 40 μM, 96 h): 0.00 | Cellular Metabolic Activity ([1]; 40 μM, time 0): 0.039 | Cellular Metabolic Activity ([1]; 80 μM, 24 h): 0.042 | Cellular Metabolic Activity ([1]; 80 μM, 48 h): 0.019 | Cellular Metabolic Activity ([1]; 80 μM, 72 h): 0.018 | Cellular Metabolic Activity ([1]; 80 μM, 96 h): 0.005 | Cellular Metabolic Activity ([1]; 80 μM, time 0): 0.041 | anandamide levels in a variety of brain regions (anandamide levels): significantly raised

O=C(/C=C/C=C/c1ccc2c(c1)OCO2)N1CCCCC1 [piperine]
doses reducing COX-2 to the greatest extent (COX-2): 2.5 µM | effect on cell growth / cellular metabolic activity (MTT, words) [1]: could only be studied at very low dose | Cellular Metabolic Activity ([1]; 5 μM, 24 h): 0.077 | Cellular Metabolic Activity ([1]; 5 μM, 48 h): 0.170 | Cellular Metabolic Activity ([1]; 5 μM, 72 h): 0.278 | Cellular Metabolic Activity ([1]; 5 μM, 96 h): 0.517 | Cellular Metabolic Activity ([1]; 5 μM, time 0): 0.035 | Cellular Metabolic Activity ([1]; 10 μM, 24 h): 0.073 | Cellular Metabolic Activity ([1]; 10 μM, 48 h): 0.183 | Cellular Metabolic Activity ([1]; 10 μM, 72 h): 0.271 | Cellular Metabolic Activity ([1]; 10 μM, 96 h): 0.438 | Cellular Metabolic Activity ([1]; 10 μM, time 0): 0.026 | Cellular Metabolic Activity ([1]; 20 μM, 24 h): 0.075 | Cellular Metabolic Activity ([1]; 20 μM, 48 h): 0.166 | Cellular Metabolic Activity ([1]; 20 μM, 72 h): 0.268 | Cellular Metabolic Activity ([1]; 20 μM, 96 h): 0.445 | Cellular Metabolic Activity ([1]; 20 μM, time 0): 0.022 | Cellular Metabolic Activity ([1]; 40 μM, 24 h): 0.069 | Cellular Metabolic Activity ([1]; 40 μM, 48 h): 0.169 | Cellular Metabolic Activity ([1]; 40 μM, 72 h): 0.226 | Cellular Metabolic Activity ([1]; 40 μM, 96 h): 0.423 | Cellular Metabolic Activity ([1]; 40 μM, time 0): 0.025 | Cellular Metabolic Activity ([1]; 80 μM, 24 h): 0.068 | Cellular Metabolic Activity ([1]; 80 μM, 48 h): 0.171 | Cellular Metabolic Activity ([1]; 80 μM, 72 h): 0.224 | Cellular Metabolic Activity ([1]; 80 μM, 96 h): 0.391 | Cellular Metabolic Activity ([1]; 80 μM, time 0): 0.026 | Cellular Metabolic Activity ([1]; 100 μM, 24 h): 0.071 | Cellular Metabolic Activity ([1]; 100 μM, 48 h): 0.175 | Cellular Metabolic Activity ([1]; 100 μM, 72 h): 0.248 | Cellular Metabolic Activity ([1]; 100 μM, 96 h): 0.410 | Cellular Metabolic Activity ([1]; 100 μM, time 0): 0.030 | Cellular Metabolic Activity ([1]; 200 μM, 24 h): 0.071 | Cellular Metabolic Activity ([1]; 200 μM, 48 h): 0.171 | Cellular Metabolic Activity ([1]; 200 μM, 72 h): 0.243 | Cellular Metabolic Activity ([1]; 200 μM, 96 h): 0.426 | Cellular Metabolic Activity ([1]; 200 μM, time 0): 0.027 | Cellular Metabolic Activity ([1]; 400 μM, 24 h): 0.068 | Cellular Metabolic Activity ([1]; 400 μM, 48 h): 0.191 | Cellular Metabolic Activity ([1]; 400 μM, 72 h): 0.187 | Cellular Metabolic Activity ([1]; 400 μM, 96 h): 0.255 | Cellular Metabolic Activity ([1]; 400 μM, time 0): 0.031

CCCCCc1cc(O)c2c(c1)OC(C)(C)c1ccc(C)cc1-2 [cannabinol]
TRPA1 activation (TRPA1): activate TRPA1

CCN(C(=O)[C@@H]1C=C2c3cccc4[nH]cc(c34)C[C@H]2N(C)C1)C1CC1 [ECPLA, D-N-ethyl-N-cyclopropyllysergamide]
potency of LSD (5HT2A): 40% potency % potency of LSD

COc1cc(CNC(=O)CCCC/C=C/C(C)C)ccc1O [capsaicin]
effect on cell growth / cellular metabolic activity (MTT, words) [1]: All initial doses of capsaicin were found to be inhibitory | Cellular Metabolic Activity ([1]; 0.5 μM, 24 h): 0.088 | Cellular Metabolic Activity ([1]; 0.5 μM, 48 h): 0.154 | Cellular Metabolic Activity ([1]; 0.5 μM, 72 h): 0.288 | Cellular Metabolic Activity ([1]; 0.5 μM, 96 h): 0.469 | Cellular Metabolic Activity ([1]; 0.5 μM, time 0): 0.068 | Cellular Metabolic Activity ([1]; 1 μM, 24 h): 0.084 | Cellular Metabolic Activity ([1]; 1 μM, 48 h): 0.150 | Cellular Metabolic Activity ([1]; 1 μM, 72 h): 0.326 | Cellular Metabolic Activity ([1]; 1 μM, 96 h): 0.502 | Cellular Metabolic Activity ([1]; 1 μM, time 0): 0.066 | Cellular Metabolic Activity ([1]; 5 μM, 24 h): 0.080 | Cellular Metabolic Activity ([1]; 5 μM, 48 h): 0.148 | Cellular Metabolic Activity ([1]; 5 μM, 72 h): 0.296 | Cellular Metabolic Activity ([1]; 5 μM, 96 h): 0.477 | Cellular Metabolic Activity ([1]; 5 μM, time 0): 0.068 | Cellular Metabolic Activity ([1]; 10 μM, 24 h): 0.075 | Cellular Metabolic Activity ([1]; 10 μM, 48 h): 0.174 | Cellular Metabolic Activity ([1]; 10 μM, 72 h): 0.331 | Cellular Metabolic Activity ([1]; 10 μM, 96 h): 0.708 | Cellular Metabolic Activity ([1]; 10 μM, time 0): 0.040 | Cellular Metabolic Activity ([1]; 50 μM, 24 h): 0.062 | Cellular Metabolic Activity ([1]; 50 μM, 48 h): 0.155 | Cellular Metabolic Activity ([1]; 50 μM, 72 h): 0.292 | Cellular Metabolic Activity ([1]; 50 μM, 96 h): 0.681 | Cellular Metabolic Activity ([1]; 50 μM, time 0): 0.036 | Cellular Metabolic Activity ([1]; 100 μM, 24 h): 0.063 | Cellular Metabolic Activity ([1]; 100 μM, 48 h): 0.150 | Cellular Metabolic Activity ([1]; 100 μM, 72 h): 0.272 | Cellular Metabolic Activity ([1]; 100 μM, 96 h): 0.623 | Cellular Metabolic Activity ([1]; 100 μM, time 0): 0.036 | Cellular Metabolic Activity ([1]; 200 μM, 24 h): 0.044 | Cellular Metabolic Activity ([1]; 200 μM, 48 h): 0.082 | Cellular Metabolic Activity ([1]; 200 μM, 72 h): 0.144 | Cellular Metabolic Activity ([1]; 200 μM, 96 h): 0.231 | Cellular Metabolic Activity ([1]; 200 μM, time 0): 0.040 | Cellular Metabolic Activity ([1]; 400 μM, 24 h): 0.016 | Cellular Metabolic Activity ([1]; 400 μM, 48 h): 0.031 | Cellular Metabolic Activity ([1]; 400 μM, 72 h): 0.016 | Cellular Metabolic Activity ([1]; 400 μM, 96 h): 0.018 | Cellular Metabolic Activity ([1]; 400 μM, time 0): 0.039 | Cellular Metabolic Activity ([1]; 800 μM, 24 h): 0 | Cellular Metabolic Activity ([1]; 800 μM, 48 h): 0 | Cellular Metabolic Activity ([1]; 800 μM, 72 h): 0 | Cellular Metabolic Activity ([1]; 800 μM, 96 h): 0 | Cellular Metabolic Activity ([1]; 800 μM, time 0): 0.041 | doses showing no effect (MTT) ([1]; human): < 10 µM

O=C(c1ccc(F)cc1)C1CCN(CCn2c(=O)[nH]c3ccccc3c2=O)CC1 [ketanserin, reference compound]
doses resulting in reduction of COX-2 (COX-2): none of the doses | concentration above which inhibitory effect / significant toxicity (MTT) ([1]; human): above 20 μM
